# Tests used:
# Type in all cases: functional
# [1] = system: Staphylococcus aureus; experiment: Antibacterial activity against Staphylococcus aureus ATCC 25923 at 30 ug/disk after 24 hrs by diffusion technique; conditions: ATCC 25923, 24 h, read-out: DIZ
# [2] = system: Staphylococcus saprophyticus; experiment: Antibacterial activity against Staphylococcus saprophyticus at 30 ug/disk after 24 hrs by diffusion technique; conditions: read-out: DIZ
# [3] = system: Micrococcus luteus; experiment: Antibacterial activity against Sarcina lutea ATCC 9341 at 30 ug/disk after 24 hrs by diffusion technique; conditions: ATCC 9341, 24 h, read-out: DIZ
# [4] = system: Bacillus cereus; experiment: Antibacterial activity against Bacillus cereus at 30 ug/disk after 24 hrs by diffusion technique; conditions: read-out: DIZ
# [5] = system: Bacillus subtilis; experiment: Antibacterial activity against Bacillus subtilis at 30 ug/disk after 24 hrs by diffusion technique; conditions: read-out: DIZ
# [6] = system: Escherichia coli; experiment: Antibacterial activity against Escherichia coli ATCC 25922 at 30 ug/disk after 24 hrs by diffusion technique; conditions: ATCC 25922, 24 h, read-out: DIZ
# [7] = system: Pseudomonas aeruginosa; experiment: Antibacterial activity against Pseudomonas aeruginosa at 30 ug/disk after 24 hrs by diffusion technique; conditions: read-out: DIZ
# [8] = system: Candida albicans; experiment: Antifungal activity against Candida albicans at 100 ug/disk after 24 hrs by diffusion technique; conditions: for zone of inhibition at 100 µg/disc: read-out: DIZ
compound,measurement,setting,value
O=C(C[n+]1ccc(O)nc1)c1ccc(O)c(O)c1,zone of inhibition at 30 µg/disc,[1],33 mm
same,zone of inhibition at 30 µg/disc,[2],35 mm
same,zone of inhibition at 30 µg/disc,[3],42 mm
same,zone of inhibition at 30 µg/disc,[4],32 mm
same,zone of inhibition at 30 µg/disc,[5],38 mm
same,zone of inhibition at 30 µg/disc,[6],44 mm
same,zone of inhibition at 30 µg/disc,[7],36 mm
same,zone of inhibition at 100 µg/disc,[8],28 mm
NYSTATIN,inhibition zone (IZ),[8],28 mm
O=C(C[n+]1ccccn1)c1ccc(O)c(O)c1,zone of inhibition at 30 µg/disc,[1],17 mm
same,zone of inhibition at 30 µg/disc,[2],15 mm
same,zone of inhibition at 30 µg/disc,[3],30 mm
same,zone of inhibition at 30 µg/disc,[4],20 mm
same,zone of inhibition at 30 µg/disc,[5],11 mm
same,zone of inhibition at 30 µg/disc,[6],30 mm
same,zone of inhibition at 30 µg/disc,[7],20 mm
same,zone of inhibition at 100 µg/disc,[8],0 mm
Cc1ccc[n+](CC(=O)c2ccc(O)c(O)c2)n1,zone of inhibition at 30 µg/disc,[1],26 mm
same,zone of inhibition at 30 µg/disc,[2],29 mm
same,zone of inhibition at 30 µg/disc,[3],40 mm
same,zone of inhibition at 30 µg/disc,[4],29 mm
same,zone of inhibition at 30 µg/disc,[5],28 mm
same,zone of inhibition at 30 µg/disc,[6],28 mm
same,zone of inhibition at 30 µg/disc,[7],18 mm
same,zone of inhibition at 100 µg/disc,[8],15 mm
O=C(C[n+]1cccc(-c2ccc(Br)cc2)n1)c1ccc(O)c(O)c1,zone of inhibition at 30 µg/disc,[1],17 mm
same,zone of inhibition at 30 µg/disc,[2],21 mm
same,zone of inhibition at 30 µg/disc,[3],30 mm
same,zone of inhibition at 30 µg/disc,[4],9 mm
same,zone of inhibition at 30 µg/disc,[5],16 mm
same,zone of inhibition at 30 µg/disc,[6],15 mm
same,zone of inhibition at 30 µg/disc,[7],15 mm
same,zone of inhibition at 100 µg/disc,[8],12 mm
Cc1cc[n+](CC(=O)c2ccc(O)c(O)c2)cn1,zone of inhibition at 30 µg/disc,[1],31 mm
same,zone of inhibition at 30 µg/disc,[2],35 mm
same,zone of inhibition at 30 µg/disc,[3],40 mm
same,zone of inhibition at 30 µg/disc,[4],35 mm
same,zone of inhibition at 30 µg/disc,[5],36 mm
same,zone of inhibition at 30 µg/disc,[6],41 mm
same,zone of inhibition at 30 µg/disc,[7],30 mm
same,zone of inhibition at 100 µg/disc,[8],27 mm
O=C(N[C@H](CO)[C@H](O)c1ccc([N+](=O)[O-])cc1)C(Cl)Cl [CHLORAMPHENICOL],zone of inhibition at 30 µg/disc,[1],23 mm
same,zone of inhibition at 30 µg/disc,[2],23 mm
same,zone of inhibition at 30 µg/disc,[3],38 mm
same,zone of inhibition at 30 µg/disc,[4],22 mm
same,zone of inhibition at 30 µg/disc,[5],22 mm
same,zone of inhibition at 30 µg/disc,[6],22 mm
same,zone of inhibition at 30 µg/disc,[7],11 mm
Cc1ccc(-c2ccc[n+](CC(=O)c3ccc(O)c(O)c3)n2)cc1,zone of inhibition at 30 µg/disc,[1],23 mm
same,zone of inhibition at 30 µg/disc,[2],40 mm
same,zone of inhibition at 30 µg/disc,[3],41 mm
same,zone of inhibition at 30 µg/disc,[4],33 mm
same,zone of inhibition at 30 µg/disc,[5],35 mm
same,zone of inhibition at 30 µg/disc,[6],40 mm
same,zone of inhibition at 30 µg/disc,[7],16 mm
same,zone of inhibition at 100 µg/disc,[8],25 mm

# From ChEMBL document CHEMBL1137691, “Diazinium salts with dihydroxyacetophenone skeleton: Syntheses and antimicrobial activity” (2009)
